Experimental findings from US9212184B2, “6-thio-substituted imidazo[1,2-a]pyrazines as Mps-1 inhibitors” (BAYER INTELLECTUAL PROPERTY GMBH, priority 2010, dated 2015) are described below.

The IC50 is the concentration needed to halve the response being measured.

Structures are written as SMILES.

Sequence of human kinase Mps-1 (P33981 whole entry): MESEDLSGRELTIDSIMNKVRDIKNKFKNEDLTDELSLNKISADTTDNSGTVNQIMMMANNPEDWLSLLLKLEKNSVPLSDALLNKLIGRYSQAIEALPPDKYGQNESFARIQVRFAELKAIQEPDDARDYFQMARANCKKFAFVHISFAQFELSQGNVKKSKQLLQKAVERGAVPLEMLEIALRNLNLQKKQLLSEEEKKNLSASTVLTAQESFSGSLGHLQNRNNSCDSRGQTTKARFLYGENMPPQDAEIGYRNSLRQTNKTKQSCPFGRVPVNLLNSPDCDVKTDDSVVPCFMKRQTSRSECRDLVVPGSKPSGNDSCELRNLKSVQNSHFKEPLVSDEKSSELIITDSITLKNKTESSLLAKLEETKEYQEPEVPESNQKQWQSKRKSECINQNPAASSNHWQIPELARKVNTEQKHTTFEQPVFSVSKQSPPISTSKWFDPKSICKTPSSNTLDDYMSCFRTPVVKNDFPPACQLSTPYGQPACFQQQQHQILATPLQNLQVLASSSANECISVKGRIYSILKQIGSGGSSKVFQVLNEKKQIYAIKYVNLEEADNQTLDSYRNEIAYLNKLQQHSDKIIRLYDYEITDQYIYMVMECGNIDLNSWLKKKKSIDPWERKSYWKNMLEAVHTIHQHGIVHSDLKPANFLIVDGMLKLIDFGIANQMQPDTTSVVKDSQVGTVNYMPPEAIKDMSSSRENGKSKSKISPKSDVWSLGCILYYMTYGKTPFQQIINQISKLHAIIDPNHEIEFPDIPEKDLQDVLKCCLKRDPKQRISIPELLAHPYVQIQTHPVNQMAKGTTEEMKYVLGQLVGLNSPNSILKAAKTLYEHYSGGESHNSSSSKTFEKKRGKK

The test concerns the target human kinase Mps-1 (Homo sapiens (Human), UniProt P33981). In words: Mps-1 kinase assay (TR-FRET). The format is biochemical. Particulars: N-terminally GST-tagged human full length recombinant Mps-1; 10 μM ATP; 1 μM peptide substrate; 60 min at 22° C.; read-out: Mps1 IC50. How it is done:
The human kinase Mps-1 phosphorylates a biotinylated substrate peptide. Detection of the phosphorylated product is achieved by time-resolved fluorescence resonance energy transfer (TR-FRET) from Europium-labelled anti-phospho-Serine/Threonine antibody as donor to streptavidin labelled with cross-linked allophycocyanin (SA-XLent) as acceptor. Compounds are tested for their inhibition of the kinase activity.
N-terminally GST-tagged human full length recombinant Mps-1 kinase (purchased from Invitrogen, Karslruhe, Germany, cat. no PV4071) was used. As substrate for the kinase reaction a biotinylated peptide of the amino-acid sequence PWDPDDADITEILG (C-terminus in amide form, purchased from Biosynthan GmbH, Berlin) was used.
For the assay 50 nL of a 100-fold concentrated solution of the test compound in DMSO was pipetted into a black low volume 384 well microtiter plate (Greiner Bio-One, Frickenhausen, Germany), 2 μl of a solution of Mps-1 in assay buffer [0.1 mM sodium-ortho-vanadate, 10 mM MgCl2, 2 mM DTT, 25 mM Hepes pH 7.7, 0.05% BSA, 0.001% Pluronic F-127] were added and the mixture was incubated for 15 min at 22° C. to allow pre-binding of the test compounds to Mps-1 before the start of the kinase reaction. […]
The resulting mixture was incubated 1 h at 22° C. to allow the binding of the phosphorylated peptide to the anti-phospho(Ser/Thr)-Europium-antibody. Subsequently the amount of phosphorylated substrate was evaluated by measurement of the resonance energy transfer from the Europium-labelled anti-phospho(Ser/Thr) antibody to the Streptavidin-XLent. Therefore, the fluorescence emissions at 620 nm and 665 nm after excitation at 350 nm was measured in a Viewlux TR-FRET reader (PerkinElmer LAS, Rodgau-Jügesheim, Germany). The “blank-corrected normalized ratio” (a Viewlux specific readout, similar to the traditional ratio of the emissions at 665 nm and at 622 nm, in which blank and Eu-donor crosstalk are subtracted from the 665 nm signal before the ratio is calculated) was taken as the measure for the amount of phosphorylated substrate. […]
Consider `CSc1cn2c(-c3ccc(C(=O)NC4CC4)cc3)cnc2c(NCC(C)C)n1` [Example 1-2, N-cyclopropyl-4-{8-[(2-methylpropyl)amino]-6-(methylsulfanyl)imidazo[1,2-a]pyrazin-3-yl}benzamide], for which the IC50 came to 5 nM.
On to `CSc1cn2c(-c3ccc(C(=O)NC4CC4)c(C)c3)cnc2c(NCCC(F)(F)F)n1` [Example 1-3, N-cyclopropyl-2-methyl-4-{6-(methylsulfanyl)-8-[(3,3,3-trifluoropropyl)amino]imidazo[1,2-a]pyrazin-3-yl} benzamide], for which the IC50 was found to be 8.6 nM.
With `CSc1cn2c(-c3ccc(C(=O)NC4CC4)c(C)c3)cnc2c(NCC(C)(C)O)n1` [Example 1-4, N-cyclopropyl-4-{8-[(2-hydroxy-2-methylpropyl)amino]-6-(methylsulfanyl)imidazo [1,2-a]pyrazin-3-yl}-2-methylbenzamide], the IC50 turned out to be 64.8 nM.
